{"source": "patent US10435447B2", "about": "“Bacteriocidal peptides and uses thereof” (priority 2015, dated 2019)", "key": {"K. pneumoniae [1]": {"system": "K. pneumoniae", "assay": "microbe, parasite or virus in culture", "settings": "Klebsiella pneumoniae"}, "K. pneumoniae [2]": {"system": "K. pneumoniae"}, "P. aeruginosa [3]": {"system": "P. aeruginosa", "assay": "microbe, parasite or virus in culture", "settings": "Pseudomonas aeruginosa"}, "E. cloacae [4]": {"system": "E. cloacae", "assay": "microbe, parasite or virus in culture", "settings": "Enterobacter cloacae"}, "S. marcescens [5]": {"system": "S. marcescens", "assay": "microbe, parasite or virus in culture", "settings": "Serratia marcescens"}, "S. marcescens [6]": {"system": "S. marcescens"}, "E. coli [7]": {"system": "E. coli", "assay": "microbe, parasite or virus in culture", "settings": "Escherichia coli"}, "E. coli [8]": {"system": "E. coli", "settings": "for LVX MIC fold change (↓ decrease) / MEM MIC fold change (↓ decrease): with SMAP-29C* vs alone"}, "E. cloacae [9]": {"system": "E. cloacae"}, "P. aeruginosa [10]": {"system": "P. aeruginosa"}, "TLR4": {"system": "TLR4", "settings": "earlier finding; cited from earlier work"}, "[11]": {"system": "Toll-like receptor 3 (TLR3)", "assay": "IL-6 ELISA, TLR3 signaling with poly(I:C) in BEAS-2B cells", "type": "cell-based, human", "description": "Innate immune signaling by endogenous Toll-like receptor 3 (TLR3) in BEAS-2B cells in response to double-stranded RNA and various bacteriocidal peptides. IL-6 cytokine produced in response to signal transduction by TLR3 and the double-stranded RNA mimic, poly(I:C), was quantified using ELISA. Where present, the peptides were added to the media of BEAS-2B cells to a final concentration of 2 μM. […] All assays were performed in three independent samples and the mean and one standard error is shown above the bars."}, "[12]": {"system": "Toll-like receptor 3 (TLR3)", "settings": "mouse cells and human cells; earlier finding; cited from earlier work"}, "[13]": {"settings": "K. pneumoniae OC 4110, with SMAP-29C* vs alone"}, "[14]": {"settings": "read-out: Kan + SMAP-29C* (Kan MIC)"}, "[15]": {"settings": "S. marcescens 4104, with SMAP-29C* vs alone"}, "[16]": {"settings": "E. cloacae OC 4080, with SMAP-29C* vs alone"}, "[17]": {"settings": "P. aeruginosa PA01 oprD, with SMAP-29C* vs alone"}, "[18]": {"settings": "read-out: MEM + SMAP-29C* (MEM MIC)"}}, "note": "Where two headings read alike, the source gives them in different places. Residues, ends and D or L forms follow the SMILES beside them."}
{"compound": "NC[C@H]1O[C@H](O[C@H]2[C@H](O)[C@@H](O[C@H]3O[C@H](CO)[C@@H](O)[C@H](N)[C@H]3O)[C@H](N)C[C@@H]2N)[C@H](O)[C@@H](O)[C@@H]1O", "note": "[Kan, kanamycin]", "values": [{"measurement": "MIC", "setting": "K. pneumoniae [1]; read-out: Kan (MIC alone)", "value": 4, "unit": "µg/mL"}, {"measurement": "Kan MIC Fold change (↓ decrease)", "setting": "K. pneumoniae [2]; [13]", "value": "↓2x fold"}, {"measurement": "MIC", "setting": "P. aeruginosa [3]; read-out: Kan (MIC alone)", "value": 64, "unit": "µg/mL"}, {"measurement": "MIC", "setting": "P. aeruginosa [3]; [14]", "value": 32, "unit": "µg/mL"}, {"measurement": "MIC", "setting": "E. cloacae [4]; read-out: Kan (MIC alone)", "value": 2, "unit": "µg/mL"}, {"measurement": "MIC", "setting": "S. marcescens [5]; read-out: Kan (MIC alone)", "value": 4, "unit": "µg/mL"}, {"measurement": "Kan MIC Fold change (↓ decrease)", "setting": "S. marcescens [6]; [15]", "value": "↓2x fold"}, {"measurement": "MIC", "setting": "E. coli [7]; ATCC25922, read-out: Kan (MIC alone)", "value": 2, "unit": "µg/mL"}, {"measurement": "MIC", "setting": "E. coli [7]; read-out: Kan (MIC alone)", "value": 16, "unit": "µg/mL"}, {"measurement": "MIC", "setting": "E. coli [7]; [14]", "value": 8, "unit": "µg/mL"}]}
{"compound": "C[C@H]1COc2c(N3CCN(C)CC3)c(F)cc3c(=O)c(C(=O)O)cn1c23", "note": "[LVX, Levofloxacin]", "values": [{"measurement": "LVX MIC fold change (↓ decrease)", "setting": "E. coli [8]; E. coli ATCC 25922", "value": 1, "unit": "fold"}, {"measurement": "LVX MIC fold change (↓ decrease)", "setting": "E. coli [8]; E. coli IU-342", "value": "↓4x fold"}, {"measurement": "MIC", "setting": "K. pneumoniae [1]; read-out: LVX (MIC alone)", "value": 0.5, "unit": "µg/mL"}, {"measurement": "LVX + SMAP-29C* (LVX MIC)", "setting": "K. pneumoniae [2]", "value": 0.5, "unit": "µg/mL"}, {"measurement": "LVX MIC fold change (↓ decrease)", "setting": "K. pneumoniae [2]; [13]", "value": 1, "unit": "fold"}, {"measurement": "LVX + SMAP-29C* (LVX MIC)", "setting": "E. cloacae [9]", "value": "<4", "unit": "ng/mL"}, {"measurement": "LVX MIC fold change (↓ decrease)", "setting": "E. cloacae [9]; [16]", "value": "↓>8x fold"}, {"measurement": "MIC", "setting": "P. aeruginosa [3]; read-out: LVX (MIC alone)", "value": 4, "unit": "µg/mL"}, {"measurement": "MIC", "setting": "E. cloacae [4]; read-out: LVX (MIC alone)", "value": 0.032, "unit": "µg/mL"}, {"measurement": "MIC", "setting": "S. marcescens [5]; read-out: LVX (MIC alone)", "value": 4, "unit": "µg/mL"}, {"measurement": "LVX + SMAP-29C* (LVX MIC)", "setting": "P. aeruginosa [10]", "value": "<0.125", "unit": "µg/mL"}, {"measurement": "LVX MIC fold change (↓ decrease)", "setting": "P. aeruginosa [10]; [17]", "value": "↓>32x fold"}, {"measurement": "LVX + SMAP-29C* (LVX MIC)", "setting": "S. marcescens [6]", "value": "<0.125", "unit": "µg/mL"}, {"measurement": "LVX MIC fold change (↓ decrease)", "setting": "S. marcescens [6]; [15]", "value": "↓>32x fold"}, {"measurement": "MIC", "setting": "E. coli [7]; ATCC25922, read-out: LVX (MIC alone)", "value": 0.016, "unit": "µg/mL"}, {"measurement": "MIC", "setting": "E. coli [7]; read-out: LVX (MIC alone)", "value": 8, "unit": "µg/mL"}]}
{"compound": "C[C@@H](O)[C@H]1C(=O)N2C(C(=O)O)=C(S[C@@H]3CN[C@H](C(=O)N(C)C)C3)[C@H](C)[C@H]12", "note": "[MEM, Meropenem]", "values": [{"measurement": "MEM MIC fold change (↓ decrease)", "setting": "E. coli [8]; E. coli ATCC 25922", "value": "↓2x fold"}, {"measurement": "MEM MIC fold change (↓ decrease)", "setting": "E. coli [8]; E. coli IU-342", "value": "↓>4x fold"}, {"measurement": "MIC", "setting": "K. pneumoniae [1]; read-out: MEM (MIC alone)", "value": 0.052, "unit": "µg/mL"}, {"measurement": "MIC", "setting": "K. pneumoniae [1]; [18]", "value": 0.032, "unit": "µg/mL"}, {"measurement": "MEM MIC fold change (↓ decrease)", "setting": "K. pneumoniae [2]; [13]", "value": 1, "unit": "x fold"}, {"measurement": "MEM MIC fold change (↓ decrease)", "setting": "E. cloacae [9]; [16]", "value": "↓4x fold"}, {"measurement": "MIC", "setting": "P. aeruginosa [3]; read-out: MEM (MIC alone)", "value": 1, "unit": "µg/mL"}, {"measurement": "MIC", "setting": "P. aeruginosa [3]; [18]", "value": 0.5, "unit": "µg/mL"}, {"measurement": "MIC", "setting": "E. cloacae [4]; read-out: MEM (MIC alone)", "value": 0.032, "unit": "µg/mL"}, {"measurement": "MIC", "setting": "E. cloacae [4]; [18]", "value": 0.008, "unit": "µg/mL"}, {"measurement": "MIC", "setting": "S. marcescens [5]; read-out: MEM (MIC alone)", "value": 0.032, "unit": "µg/mL"}, {"measurement": "MIC", "setting": "S. marcescens [5]; [18]", "value": 0.008, "unit": "µg/mL"}, {"measurement": "MEM MIC fold change (↓ decrease)", "setting": "P. aeruginosa [10]; [17]", "value": "↓2x fold"}, {"measurement": "MEM MIC fold change (↓ decrease)", "setting": "S. marcescens [6]; [15]", "value": "↓4x fold"}, {"measurement": "MIC", "setting": "E. coli [7]; ATCC25922, read-out: MEM (MIC alone)", "value": 0.016, "unit": "µg/mL"}, {"measurement": "MIC", "setting": "E. coli [7]; ATCC25922, read-out: MEM + SMAP-29C* (MEM MIC)", "value": 0.008, "unit": "µg/mL"}, {"measurement": "MIC", "setting": "E. coli [7]; read-out: MEM (MIC alone)", "value": 0.016, "unit": "µg/mL"}, {"measurement": "MIC", "setting": "E. coli [7]; [18]", "value": "< 0.004", "unit": "µg/mL"}]}
{"compound": "CC[C@H](C)[C@H](NC(=O)[C@H](CCCCN)NC(=O)[C@H](CCCNC(=N)N)NC(=O)CNC(=O)[C@H](CC(C)C)NC(=O)[C@H](CCCNC(=N)N)NC(=O)[C@H](CCCNC(=N)N)NC(=O)[C@H](CC(C)C)NC(=O)CNC(=O)[C@@H](N)CCCNC(=N)N)C(=O)N[C@@H](C)C(=O)N[C@@H](Cc1c[nH]cn1)C(=O)NCC(=O)N[C@H](C(=O)N[C@@H](CCCCN)C(=O)N[C@@H](CCCCN)C(=O)N[C@@H](CS)C(=O)NCC(=O)N1CCC[C@H]1C(=O)N[C@H](C(=O)N[C@H](C(=O)N[C@@H](CC(C)C)C(=O)N[C@@H](CCCNC(=N)N)C(=O)N[C@H](C(=O)N[C@H](C(=O)N[C@@H](CCCNC(=N)N)C(=O)N[C@H](C(=O)N[C@@H](C)C(=O)NCC(=O)N[C@@H](CS)C(=O)O)[C@@H](C)CC)[C@@H](C)CC)[C@@H](C)CC)C(C)C)[C@@H](C)O)C(C)C", "note": "[SMAP-29C] (H-RGLRRLGRKIAHGVKKCGPTVLRIIRIAGC-OH; N-terminus and C-terminus assumed)", "values": [{"measurement": "MIC for ShpC + Kan*", "setting": "E. coli [8]; E. coli ATCC25922, with Kan* 1 μg/ml (½ MIC)", "value": "<0.25", "unit": "µg/mL"}, {"measurement": "MIC for ShpC + Kan*", "setting": "E. coli [8]; E. coli IU-342, with Kan* 8 μg/ml (½ MIC)", "value": 2, "unit": "µg/mL"}, {"measurement": "MIC for ShpC + Kan*", "setting": "K. pneumoniae [2]; K. pneumoniae OC 4110, with Kan* 2 μg/ml (½ MIC)", "value": 2, "unit": "µg/mL"}, {"measurement": "SMAP-29C MIC fold change (↓ decrease)", "setting": "K. pneumoniae [2]; K. pneumoniae OC 4110, with Kan* vs alone", "value": "↓4x fold"}, {"measurement": "SMAP-29C MIC fold change (↓ decrease)", "setting": "K. pneumoniae [2]; K. pneumoniae OC 4110, with LVX* vs alone", "value": 1, "unit": "x fold"}, {"measurement": "SMAP-29C MIC fold change (↓ decrease)", "setting": "K. pneumoniae [2]; K. pneumoniae OC 4110, with MEM* vs alone", "value": "↓2x fold"}, {"measurement": "MIC for ShpC + Kan*", "setting": "E. cloacae [9]; E. cloacae OC 4080, with Kan* 1 μg/ml (½ MIC)", "value": 2, "unit": "µg/mL"}, {"measurement": "MIC for ShpC + Kan*", "setting": "P. aeruginosa [10]", "value": 2, "unit": "µg/mL"}, {"measurement": "MIC for ShpC + Kan*", "setting": "S. marcescens [6]; S. marcescens 4104, with Kan* 2 μg/ml (½ MIC)", "value": 2, "unit": "µg/mL"}, {"measurement": "SMAP-29C MIC fold change (↓ decrease)", "setting": "S. marcescens [6]; S. marcescens 4104, with Kan* vs alone", "value": "↓>8x fold"}, {"measurement": "SMAP-29C MIC fold change (↓ decrease)", "setting": "S. marcescens [6]; S. marcescens 4104, with LVX* vs alone", "value": "↓>4x fold"}, {"measurement": "SMAP-29C MIC fold change (↓ decrease)", "setting": "S. marcescens [6]; S. marcescens 4104, with MEM* vs alone", "value": "No change"}, {"measurement": "MIC", "setting": "E. faecalis", "value": 32, "unit": "µg/mL"}]}
{"compound": "CRAMP: SEQ ID NO: 4, mouse ortholog of LL-37, GLLRKGGEKIGEKLKKIGQKIKNFFQKLVPQPEQ (listed as Mus musculus)", "values": [{"measurement": "suppression of inflammatory response induced by lipopolysaccharide", "setting": "TLR4", "value": "retained the ability to suppress inflammatory response"}, {"measurement": "enhancement of TLR3 signaling / IL-6 production (in words)", "setting": "[11]", "value": "unable to enhance IL-6 production"}, {"measurement": "activation of signaling by TLR3", "setting": "[12]", "value": "unable to activate signaling by TLR3"}]}
